This is an account of results in patent US7192924B2, “Corticotropin releasing factor 2 receptor agonists” (priority 2002, dated 2007).

The structures appear in SMILES notation. Peptide text beside a SMILES is read from it. Bounds are passed on as bounds.

The target of one experiment is T1, CRF2R (Homo sapiens, UniProt Q13324).
T1 sequence (Q13324 1-411): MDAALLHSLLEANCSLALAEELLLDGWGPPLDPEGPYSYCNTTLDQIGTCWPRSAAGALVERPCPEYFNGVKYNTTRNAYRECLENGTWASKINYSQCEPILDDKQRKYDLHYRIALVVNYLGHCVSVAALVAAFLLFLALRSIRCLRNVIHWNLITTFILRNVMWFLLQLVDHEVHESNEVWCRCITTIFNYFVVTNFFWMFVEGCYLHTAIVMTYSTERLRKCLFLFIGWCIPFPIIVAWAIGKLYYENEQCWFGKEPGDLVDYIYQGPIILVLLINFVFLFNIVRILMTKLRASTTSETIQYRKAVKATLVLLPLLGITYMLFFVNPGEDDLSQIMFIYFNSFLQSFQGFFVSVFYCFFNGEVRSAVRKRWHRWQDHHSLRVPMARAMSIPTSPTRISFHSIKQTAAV
The experiment is described as follows: CRF2R agonist activity (EC50, Emax), called comparative CRF binding. The format is cell-based. The note with it: read-out: CRF2R EC50. The text has this: (§1) The pharmacological activity and selectivity of the peptides of present invention can be determined using published test procedures. See, e.g, U.S. patent application Ser. No. 09/799,978. Because CRF2R and CRF1R are homologous proteins, it is expected that a certain proportion of agonists for CRF2R will also function as agonists of CRF1R. As discussed above, activation of CRF1R induces activation of the HPA axis since increased corticosteroid production leads to skeletal muscle atrophy. In most cases in which an increase in muscle mass or function is desired, it is not desirable to activate the HPA axis.
(§2) Because it is desirable to discriminate binding between CRF2R, as compared with CRF1R, the assays described above may be conducted using a cell, or membrane from a cell, which expresses only CRF2R or the assays can be conducted with a recombinant source of CRF2R. Cells expressing both forms of CRFR may be modified using homologous recombination to inactivate or otherwise disable the CRF1R gene. Alternatively, if the source of CRFR contains more than one CRFR type, the background signal produced by the receptor which is not of interest must be subtracted from the signal obtained in the assay. […] Known antagonists of CRFRs include, but, are not limited to, antalarmin (CRF1R selective), antisauvagine-30 (CRF2R selective) and astressin (nonselective for CRF1R/CRF2R).
(§3) Cell-based assays include the steps of contacting cells which express CRF1R or CRF2R with a peptide of the present invention or control and measuring activation of the CRFR by measuring the expression or activity of components of the CRFR signal transduction pathways.
(§4) As described in the background section above, CRFRs appear to couple through several different pathways including Gαs, Gαq or Gαi, depending upon the cell type. It is thought that agonist activation of CRFR allows the receptor to signal via any of these pathways, provided that the necessary pathway components are present in the particular cell type. Thus, to assay a particular peptide of the present invention for CRFR activation, an assay can use any of the signal transduction pathways as the readout even if the relevant cell type for treatment, in vivo, couples CRFR to skeletal muscle atrophy via a different pathway. […] Assays for measuring activation of these signaling pathways are known in the art.
(§5) For example, after contact with a peptide of the present invention, lysates of the cells can be prepared and assayed for induction of cAMP. cAMP is induced in response to Gαs activation. Because Gαs is activated by receptors other than CRFR and because a test peptide may be exerting its effect through CRFRs or by another mechanism, two control comparisons are relevant for determining whether the peptide increases levels of cAMP via activation of a CRFR. One control compares the cAMP level of cells contacted with the peptide and the cAMP level of cells contacted with a control compound (i.e., the vehicle in which the peptide is dissolved).
(§6) In one example, cAMP induction is measured with the use of DNA constructs containing the cAMP responsive element linked to any of a variety of reporter genes can be introduced into cells expressing CRFRs. Such reporter genes include, but are not limited to, chloramphenicol acetyltransferase (CAT), luciferase, glucuronide synthetase, growth hormone, fluorescent proteins (e.g., Green Fluorescent Protein), or alkaline phosphatase. Following exposure of the cells to the peptide, the level of reporter gene expression can be quantitated to determine the peptide's ability to increase cAMP levels and thus determine the peptide's ability to activate the CRFR.
(§7) In addition to using cells expressing full length CRFRs, cells can be engineered which express CRFRs containing the ligand binding domain of the receptor coupled to, or physically modified to contain, reporter elements or to interact with signaling proteins.

The target in another experiment is T2, CRF1R (Homo sapiens, UniProt P34998).
T2 sequence (P34998 24-415): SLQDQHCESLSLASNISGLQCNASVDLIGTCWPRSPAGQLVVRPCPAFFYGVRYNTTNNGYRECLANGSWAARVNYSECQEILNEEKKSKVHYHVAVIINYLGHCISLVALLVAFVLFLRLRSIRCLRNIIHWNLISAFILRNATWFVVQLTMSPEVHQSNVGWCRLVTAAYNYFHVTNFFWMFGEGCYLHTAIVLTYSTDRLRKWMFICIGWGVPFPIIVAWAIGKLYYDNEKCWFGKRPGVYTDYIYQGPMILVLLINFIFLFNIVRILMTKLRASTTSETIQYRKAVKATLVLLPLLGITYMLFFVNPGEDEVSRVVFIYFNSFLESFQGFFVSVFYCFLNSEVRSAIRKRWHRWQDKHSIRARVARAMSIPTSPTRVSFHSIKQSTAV
The experiment in a line: CRF1R agonist activity (EC50, Emax), called comparative CRF binding. The note with it: read-out: CRF1R EC50. The format is cell-based.
Source text: as §1, §2, §3, §4, §5, §6, §7

With `CC[C@H](C)[C@H](NC(=O)[C@H](CCCNC(=N)N)NC(=O)[C@H](C)NC(=O)[C@H](CC(N)=O)NC(=O)[C@H](CCC(N)=O)NC(=O)[C@H](CCC(=O)O)NC(=O)[C@H](C)NC(=O)[C@H](CCCNC(=N)N)NC(=O)[C@H](CCC(=O)O)NC(=O)[C@H](CCCNC(=N)N)NC(=O)[C@H](CCC(N)=O)NC(=O)[C@H](CO)NC(=O)[C@H](CCC(N)=O)NC(=O)[C@@H](NC(=O)[C@H](CCCNC(=N)N)NC(=O)[C@H](C)NC(=O)[C@H](CC(C)C)NC(=O)[C@H](CCC(=O)O)NC(=O)[C@H](CC(C)C)NC(=O)[C@H](CC(C)C)NC(=O)[C@@H](NC(=O)[C@H](CCCNC(=N)N)NC(=O)[C@H](CC(C)C)NC(=O)[C@H](CC(C)C)NC(=O)[C@H](Cc1ccccc1)NC(=O)[C@H](CC(C)C)NC(=O)[C@@H]1CCCN1C(=O)[C@H](CC(C)C)NC(=O)[C@H](CC(=O)O)NC(=O)[C@@H](NC(=O)[C@H](CO)NC(=O)[C@H](CC(C)C)NC(=O)[C@H](CO)NC(=O)[C@@H]1CCCN1C(=O)[C@H](CC(N)=O)NC(=O)[C@@H](N)CC(=O)O)[C@@H](C)CC)[C@@H](C)O)[C@@H](C)O)C(=O)N[C@@H](Cc1ccccc1)C(=O)N[C@@H](C)C(=O)N[C@@H](CCCNC(=N)N)C(=O)N[C@H](C(N)=O)C(C)C` [compound 329] (H-DNPSLSIDLPLFLLRTLLELARTQSQRERAEQNARIFARV-NH2; N-terminus assumed), the EC50 at CRF2R was 5.15 nM; on CRF1R, not below 1000 nM.
`CC[C@H](C)[C@H](N)C(=O)N[C@H](C(=O)N[C@@H](CC(C)C)C(=O)N[C@@H](CO)C(=O)N[C@@H](CC(C)C)C(=O)N[C@@H](CC(=O)O)C(=O)N[C@H](C(=O)N1CCC[C@H]1C(=O)N[C@H](C(=O)NCC(=O)N[C@@H](CC(C)C)C(=O)N[C@@H](CC(C)C)C(=O)N[C@@H](CCC(N)=O)C(=O)N[C@H](C(=O)N[C@@H](CC(C)C)C(=O)N[C@@H](CC(C)C)C(=O)N[C@@H](CCC(=O)O)C(=O)N[C@@H](CCSC)C(=O)N[C@H](C(=O)N[C@@H](CCCCN)C(=O)N[C@@H](C)C(=O)N[C@@H](CC(=O)O)C(=O)N[C@@H](CCC(N)=O)C(=O)N[C@@H](CC(C)C)C(=O)N[C@@H](C)C(=O)N[C@@H](CCC(N)=O)C(=O)N[C@@H](CCC(N)=O)C(=O)N[C@@H](C)C(=O)N[C@@H](Cc1c[nH]cn1)C(=O)N[C@@H](CO)C(=O)N[C@@H](CC(N)=O)C(=O)N[C@@H](CCCNC(=N)N)C(=O)N[C@@H](CCCCN)C(=O)N[C@@H](CC(C)C)C(=O)N[C@@H](CC(C)C)C(=O)N[C@@H](CC(=O)O)C(=O)N[C@H](C(=O)N[C@@H](C)C(N)=O)[C@@H](C)CC)[C@@H](C)O)[C@@H](C)CC)[C@@H](C)CC)C(C)C)C(C)C` [compound 155] (H-IVLSLDVPIGLLQILLEMTKADQLAQQAHSNRKLLDIA-NH2; N-terminus assumed): the EC50 on CRF2R came out at 20.6 nM; at CRF1R it was 40.6 nM.
For `CC[C@H](C)[C@H](NC(=O)[C@H](C)NC(=O)[C@H](CC(N)=O)NC(=O)[C@H](CCC(N)=O)NC(=O)[C@H](CCC(=O)O)NC(=O)[C@H](C)NC(=O)[C@H](CCCNC(=N)N)NC(=O)[C@H](CCC(=O)O)NC(=O)[C@H](CCCNC(=N)N)NC(=O)[C@H](CCC(N)=O)NC(=O)[C@H](CO)NC(=O)[C@H](CCC(N)=O)NC(=O)[C@@H](NC(=O)[C@H](CCCNC(=N)N)NC(=O)[C@H](C)NC(=O)[C@H](CC(C)C)NC(=O)[C@H](CCC(=O)O)NC(=O)[C@H](CC(C)C)NC(=O)[C@H](CC(C)C)NC(=O)[C@@H](NC(=O)[C@H](CCCNC(=N)N)NC(=O)[C@H](CC(C)C)NC(=O)[C@H](CC(C)C)NC(=O)[C@H](Cc1ccc(O)cc1)NC(=O)[C@H](Cc1ccccc1)NC(=O)[C@@H]1CCCN1C(=O)[C@H](CC(C)C)NC(=O)[C@H](CC(=O)O)NC(=O)[C@@H](NC(=O)[C@H](CO)NC(=O)[C@H](CC(C)C)NC(=O)[C@H](CO)NC(=O)[C@@H]1CCCN1C(=O)[C@H](CC(N)=O)NC(=O)[C@@H](N)CC(=O)O)[C@@H](C)CC)[C@@H](C)O)[C@@H](C)O)C(=O)N[C@H](C(=O)N[C@@H](Cc1ccccc1)C(=O)N[C@@H](C)C(=O)N[C@@H](CO)C(=O)N[C@H](C(N)=O)C(C)C)[C@@H](C)CC` [compound 183] (H-DNPSLSIDLPFYLLRTLLELARTQSQRERAEQNAIIFASV-NH2; N-terminus assumed), the results for the EC50 on CRF2R and on CRF1R were 7.93 nM and 415 nM, respectively.
For `CC[C@H](C)[C@H](N)C(=O)N[C@H](C(=O)N[C@@H](CC(C)C)C(=O)N[C@@H](CO)C(=O)N[C@@H](CC(C)C)C(=O)N[C@@H](CC(=O)O)C(=O)N[C@H](C(=O)N1CCC[C@H]1C(=O)N[C@H](C(=O)NCC(=O)N[C@@H](CC(C)C)C(=O)N[C@@H](CC(C)C)C(=O)N[C@@H](CCC(N)=O)C(=O)N[C@H](C(=O)N[C@@H](CC(C)C)C(=O)N[C@@H](CC(C)C)C(=O)N[C@@H](CCC(=O)O)C(=O)N[C@@H](CCC(N)=O)C(=O)N[C@H](C(=O)N[C@@H](CCCCN)C(=O)N[C@@H](C)C(=O)N[C@@H](CC(=O)O)C(=O)N[C@@H](C)C(=O)N[C@@H](C)C(=O)N[C@@H](CCCNC(=N)N)C(=O)N[C@@H](CCC(=O)O)C(=O)N[C@@H](CCC(N)=O)C(=O)N[C@@H](C)C(=O)N[C@H](C(=O)N[C@H](C(=O)N[C@@H](CC(N)=O)C(=O)N[C@@H](C)C(=O)N[C@@H](CCCNC(=N)N)C(=O)N[C@H](C(=O)N[C@@H](CC(C)C)C(=O)N[C@@H](C)C(=O)N[C@@H](CCCNC(=N)N)C(=O)N[C@H](C(N)=O)C(C)C)[C@@H](C)CC)[C@@H](C)O)[C@@H](C)O)[C@@H](C)O)[C@@H](C)CC)[C@@H](C)CC)C(C)C)C(C)C` [compound 108] (H-IVLSLDVPIGLLQILLEQTKADAAREQATTNARILARV-NH2; N-terminus assumed), in that order: 79 nM and more than 100 nM.

Broadly, the EC50 is the concentration needed to bring the measured effect to its halfway point.
